Reference: patent US20060247260A1, “Bis (hetero) aryl carboxamide derivatives for use as PG12 antagonists” (BAYER HEALTHCARE AG, priority 2003, published 2006)

Key:
PGI2 receptor = molecular target: T1, PGI2 receptor (Homo sapiens, UniProt P43119); assay: PGI2 receptor binding/cAMP in HEL cells (in vitro activity grade); conditions: compounds of purity about 40 to 90%
T1 construct: host or cells: HEL 92.1.7 human erythroleukemia cells (whole cells)
Protocol: [Measurement of the [^3H]-Iloprost Binding to HEL Cells] (Assay 1) A human erythloleukemia cell line, HEL 92.1.7, was purchased from American Type Culture Correction and maintained in RPMI-1640 medium (Gibco BRL) supplemented with 10% fetal calf serum (FCS), 2 mM glutamine, 4.5 g/L glucose, 10 mM Hepes, 1 mM sodium pyruvate, 100 U/ml penicillin, and 100 μg/ml streptomycin in a humidified 5% CO2 atmosphere at 37° C. Cells were collected with centrifugation and washed with binding assay buffer (BAB: 50 mM Tris-HCl, 5 mM MgCl2 (pH 7.5)). Cells were suspended at the density of 6.25×10^6 cells/ml in BAB, and one million cells in 160 μl aliquot of cell suspension were put in a well of 96 well plate (Falcon). Then, 20 μl of compound solution, 100 μM of iloprost (for non-specific binding), or buffer alone (total binding), diluted with 1% DMSO in BAB was added. Finally, another 20 μl containing [^3H]-iloprost (0.02 μCi, 0.5-1 pmol) in BAB was added and incubated at room temperature for 30 min with a gentle shaking. Cell suspension was then transferred to a well of MultiScreen plate with GF/C glass filters (Millipore) to harvest cells. Cells were washed twice with 200 μl of ice-cold BAB and the plate was kept at 55° C. for 30 min to dry filters. The filter in the well was punched out to a counting tube and 2 ml of Ultima Gold XR Packard) was added. [^3H]-radio activity in the filter was measured by a liquid scintillation counter (Beckman, USA). [Iloprost-Induced cAMP Production Assay in HEL Cells] (Assay 2) HEL cells were collected with centrifugation and washed with cAMP assay buffer (CAB: Hank's balanced salt solution, 17 mM Hepes, 0.1% bovine serum albumin, 1 mM IBMX, 0.4% DMSO, and 1 mM L-ascorbic acid sodium salt (pH 7.4)). Cells were suspended at the density of 2.5×10^5 cells/ml in CAB, and twenty thousand cells in 80 μl aliquot of cell suspension were put in a well of 96 well plate (Falcon). Then, 10 μl of compound solution diluted with 1% DMSO in CAB or buffer alone was added. The plate was incubated at 37° C. for 30 min. Then, another 10 μl containing 100 nM iloprost in CAB or buffer alone was added and further incubated at 37° C. for 30 min. cAMP content in the well was measured by, a cAMP ELISA kit (Applied Biosystems, USA). The data corresponds to the compounds as yielded by solid phase synthesis and thus to levels of purity of about 40 to 90%. For practical reasons, the compounds are grouped in three classes of activity as follows: In vitro activity grade=A≦0.1 μM<B≦1 μM<C

T1 sequence (P43119 whole entry): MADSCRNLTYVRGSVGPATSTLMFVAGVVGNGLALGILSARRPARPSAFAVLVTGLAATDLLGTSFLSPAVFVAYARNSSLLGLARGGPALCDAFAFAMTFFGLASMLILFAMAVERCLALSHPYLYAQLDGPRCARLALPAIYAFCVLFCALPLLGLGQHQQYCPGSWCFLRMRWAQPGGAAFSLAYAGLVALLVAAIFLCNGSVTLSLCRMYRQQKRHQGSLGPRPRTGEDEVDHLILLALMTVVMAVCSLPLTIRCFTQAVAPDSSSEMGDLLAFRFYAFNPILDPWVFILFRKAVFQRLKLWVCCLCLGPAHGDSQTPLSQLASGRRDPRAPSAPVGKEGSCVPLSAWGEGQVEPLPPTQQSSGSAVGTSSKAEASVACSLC

- In vitro activity grade (PGI2 receptor): A (A≦0.1 μM)
- melting point: 215 °C
SMILES: O=C(NC(Cc1ccccc1)C(=O)O)c1ccc(-c2ccc(OCc3ccccc3)c(F)c2)cc1 (centres unmarked) [Example 7-1, 2-[(4′-Benzyloxy-3′-fluorobiphenyl-4-carbonyl)amino]-3-phenylpropionic acid]
